Test results reported in patent US6969711B2, “Cyclic diamine compounds and medicine containing the same” (Kowa Company, Ltd., priority 1997, dated 2005).

Tests used:
J774 cells = experiment: ACAT inhibitory action (anti-foaming action) in J774 cells; format: cell-based; settings: Mus musculus, 10 μg/ml 25-OH cholesterol, 18 hours, cholesterol ester per protein, read-out: Enzyme (J774) IC50
HepG2 cells = experiment: ACAT inhibitory action (anti-foaming action) in HepG2 cells; format: cell-based; settings: Homo sapiens, 10 μg/ml 25-OH cholesterol, 18 hours, cholesterol ester per protein, read-out: Enzyme (HepG2) IC50

melting point [°C] | IC50 (J774 cells) [nM] | IC50 (HepG2 cells) [nM] | SMILES
173 to 175 | 100 | 1450 | COC(=O)c1cccc2oc(SCCN3CCN(CC(=O)Nc4c(C(C)C)cccc4C(C)C)CC3)nc12 [Example 5, 2-[4-[2-(4-methoxycarbonylbenzoxazol-2-ylthio)ethyl]-piperazin-1-yl]-N-(2,6-diisopropylphenyl)acetamide]
135 to 136 | 270 | 4900 | COC(=O)c1cccc2nc(SCCCN3CCN(CC(=O)Nc4c(C(C)C)cccc4C(C)C)CC3)oc12 [Example 10, 2-[4-[3-(7-methoxycarbonylbenzoxazol-2-ylthio)propyl]piperazin-1-yl]-N-(2,6-diisopropylphenyl)acetamide]
– | 320 | – | CCCCCCCCCN(CC(C)(C)C)C(=O)N[C@H]1CCCC[C@@H]1OC(=O)CCNC(=O)C1OC(C)(C)OCC1(C)C (stereo partly shown) [Control 3, reference compound]
